Experimental findings from ChEMBL document CHEMBL1136704, “3-amino-4-sulfonylpyridinone acetamide and related pyridothiadiazine thrombin inhibitors” (Bioorg Med Chem Lett, 2003) are described below.

pKi: −log10 of the molar value.

Data set [1] can be described thus: Half life period in dogs after oral administration at 1 mg/kg. In kind it is ADME, organism-based, Canis lupus familiaris. The arrangement: dose 1 mg/kg, route oral. The note with it: dog, in vivo.
Data set [2] in a line: Cmax value in dogs after oral administration at 1 mg/kg. In kind it is ADME, organism-based, Canis lupus familiaris. More on the design: dose 1 mg/kg, route oral. As to conditions: dog, in vivo.
The species entered for data set [3] is Homo sapiens. Nature of the data set: Anticoagulant potency, activated partial thromboplastin time assay. In kind it is functional.
A short description of data set [4]: Pharmacokinetic property in dogs after oral administration at 1 mg/kg. In kind it is ADME, organism-based, Canis lupus familiaris. More on the design: dose 1 mg/kg, route oral. The note with it: dog, in vivo.
Data set [5] has as its target Serine protease 1 (Homo sapiens, UniProt P07477). Kind of data set: Inhibitory activity against human trypsin.
A short description of data set [6]: Protein binding activity of compound in human plasma; % Free. In kind it is ADME, cell-free.
Data set [7] is filed under the species Rattus norvegicus. Nature of the data set: Final plasma concentration in the rat ferric chloride thrombosis model. The note with it: in vivo.
Data set [8] is described as follows: Cmax value in dog. The note with it: in vivo. In kind it is ADME, organism-based, Canis lupus familiaris.
Data set [9] in a line: Half life period was determined. The note with it: dog.
Data set [10] has as its target Prothrombin (Homo sapiens, UniProt P00734). Nature of the data set: Inhibition of human thrombin.
Data set [11] is described as follows: Pharmacokinetic property (Area under curve). In kind it is ADME.

Sequence of Serine protease 1 (P07477 whole entry): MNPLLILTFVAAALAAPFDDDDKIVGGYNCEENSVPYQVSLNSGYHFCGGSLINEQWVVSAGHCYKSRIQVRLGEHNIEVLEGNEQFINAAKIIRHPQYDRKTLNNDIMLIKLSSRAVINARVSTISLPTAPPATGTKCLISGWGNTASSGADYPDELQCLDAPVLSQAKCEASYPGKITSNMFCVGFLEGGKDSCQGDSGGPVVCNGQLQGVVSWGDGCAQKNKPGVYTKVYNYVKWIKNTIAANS

Usually half-life stands for how long it takes for the measured level to halve. High values mean slow decline, low ones rapid decline. As a reminder, the Cmax is the peak of the concentration-time curve. Usually AUC stands for the area under the concentration-time curve, a measure of exposure. The pKi is −log10 of the Ki, conventionally taken in molar units. High values mean a low Ki, low ones a high Ki. As for `Cc1nc(N)ccc1CNC(=O)Cn1c(C)cc(S(=O)(=O)Cc2ccccc2)c(N)c1=O`, in data set [1], the half-life was determined as 1.05 h. In data set [2], this compound came in with a Cmax of 450 nM. The same compound displayed a Concentration in data set [3] of 0.47 µM. In addition, the AUC in data set [4] turned out to be 0.62 µM·h. Also, in [5], the pKi was 5.80. In [6], the Free is listed as 22%.
Turning to `Cc1nc(N)ccc1CNC(=O)Cn1c(C)cc(S(=O)(=O)CC2CCC2)c(N)c1=O`, the concentration in data set [7] was 680 nM. In addition, the Concentration in [3] was 0.23 µM. The pKi in data set [5] was 6.26; in [10], 9.70. Besides, in data set [8], the Cmax stood at 570 nM. Moreover, the Free in data set [6] was 45%. Besides, the half-life in data set [9] was 0.783 h. Further, in data set [11], the exposure (AUC) was 2.58 µM·h.
Regarding `Cc1nc(N)ccc1CNC(=O)Cn1c(C)cc2c(c1=O)NCN(CC1CCC1)S2(=O)=O`, the Concentration in data set [3] was determined as 0.92 µM. Moreover, the pKi in data set [5] was 5.80.
`Cc1nc(N)ccc1CNC(=O)Cn1c(C)cc(S(=O)(=O)NCC2CCC2)c(N)c1=O` returned a concentration in data set [7] of 640 nM. Besides, the Concentration in data set [3] is 0.47 µM. Also, the pKi was 6.13 in data set [5] and 9.12 in data set [10]. This compound also returned a Free in data set [6] of 23%.
With `Cc1nc(N)ccc1CNC(=O)Cn1c(C)cc2c(c1=O)NCN(C1CCC1)S2(=O)=O`, the Concentration in data set [3] came to 1.11 µM. Moreover, the negative logarithm of the Ki (pKi) in data set [5] was 5.20.
`Cc1nc(N)ccc1CNC(=O)Cn1c(C)cc(S(=O)(=O)c2cccs2)c(N)c1=O` yielded a concentration in [7] of 430 nM. The same compound yielded a Concentration in data set [3] of 0.39 µM. Further, the negative logarithm of the Ki (pKi) is 6.47 in data set [5] and 8.77 in data set [10]. In [6], this compound yielded a Free of 40%.
On to `Cc1ccc(S(=O)(=O)c2cc(C)n(CC(=O)NCc3ccc(N)nc3C)c(=O)c2N)cc1`, for which the figures for the pKi in data set [5] and in [10] were 6.10 and 7.03, respectively.
Compound `Cc1nc(N)ccc1CNC(=O)Cn1c(C)cc(S(=O)(=O)NCC2CC2)c(N)c1=O` came in with a Concentration in data set [3] of 0.75 µM. Besides, the negative logarithm of the Ki (pKi) in [5] is 6.00. The compound further registered a Free in data set [6] of 53%.
As to `Cc1nc(N)ccc1CNC(=O)Cn1c(C)cc(S(=O)(=O)NC2CC2)c(N)c1=O`, the Concentration in [3] is 0.85 µM. Also, in data set [5], the pKi was 5.54.
On the same counts, the results for `Cc1nc(N)ccc1CNC(=O)Cn1c(C)cc2c(c1=O)NCN(C1CC1)S2(=O)=O` are 0.75 µM and 5.00.
Regarding `Cc1nc(N)ccc1CNC(=O)Cn1c(C)cc(S(=O)(=O)c2ccccc2)c(N)c1=O`, the concentration in data set [7] is 570 nM. In addition, the Concentration in data set [3] stood at 0.66 µM. Further, the pKi in [5] was 6.30; in data set [10] it was 8.42. Also, the Free in data set [6] was determined as 19%.
The compound `Cc1nc(N)ccc1CNC(=O)Cn1c(C)cc(S(=O)(=O)NC2CCC2)c(N)c1=O` registered a Concentration in data set [3] of 0.35 µM. The pKi in [5] was 5.96. Moreover, the Free in data set [6] worked out at 45%.
The compound `Cc1nc(N)ccc1CNC(=O)Cn1c(C)cc(S(=O)(=O)CC2CCCC2)c(N)c1=O` displayed a concentration in data set [7] of 530 nM. Further, the Concentration in data set [3] was 0.4 µM. Further, the pKi in data set [5] is 6.20; in [10], 8.92. This compound showed a Free in data set [6] of 29%.
`Cc1nc(N)ccc1CNC(=O)Cn1c(C)cc(S(=O)(=O)CC2CC2)c(N)c1=O` came in with a concentration in [7] of 550 nM. Moreover, the Concentration in data set [3] was 0.4 µM. The pKi in data set [5] was 5.72; in data set [10], 8.74. Besides, in data set [8], the peak level (Cmax) was 370 nM. In data set [6], this compound gave a Free of 70%. The same compound displayed a half-life in data set [9] of 1.1 h. In [11], this compound yielded an area under the curve (AUC) of 0.8 µM·h.
In the case of `Cc1nc(N)ccc1CNC(=O)Cn1c(C)cc(S(=O)(=O)C2CCCCC2)c(N)c1=O`, the concentration in data set [7] stood at 650 nM. The same compound yielded a Concentration in data set [3] of 0.75 µM. Further, the pKi was 6.59 in data set [5] and 8.52 in data set [10]. Further, the Free in data set [6] turned out to be 38%.
As for `Cc1nc(N)ccc1CNC(=O)Cn1c(C)cc(S(=O)(=O)C2CC2)c(N)c1=O`, the Concentration in data set [3] was determined as 1.64 µM. Besides, the pKi in [5] is 5.55; in [10] it was 7.77.
In data set [3], `Cc1nc(N)ccc1CNC(=O)Cn1c(C)cc2c(c1=O)NCN(CC1CC1)S2(=O)=O` had a Concentration of 0.79 µM. The values for the pKi in data set [5] and in data set [10] were 5.21 and 8.68, respectively. Moreover, the highest level in [8] (Cmax) was 590 nM. In [6], this compound had a Free of 25%. The compound also returned a half-life in data set [9] of 2.27 h. This compound displayed an AUC in [11] of 2.14 µM·h.
